The values below come from publication PMC10458698, “Characterization of the interferences of systemic azole antifungal drugs with adrenal steroid biosynthesis using H295R cells and enzyme activity assays” (Current Research in Toxicology, 2023).

Assay [1] concerns the target T1, CYP11A1 (Homo sapiens, UniProt P05108).
T1 construct: host or cells: V79-4 cells (Chinese hamster), transient transfection, mitochondrial fraction
T1 sequence (P05108 40-521): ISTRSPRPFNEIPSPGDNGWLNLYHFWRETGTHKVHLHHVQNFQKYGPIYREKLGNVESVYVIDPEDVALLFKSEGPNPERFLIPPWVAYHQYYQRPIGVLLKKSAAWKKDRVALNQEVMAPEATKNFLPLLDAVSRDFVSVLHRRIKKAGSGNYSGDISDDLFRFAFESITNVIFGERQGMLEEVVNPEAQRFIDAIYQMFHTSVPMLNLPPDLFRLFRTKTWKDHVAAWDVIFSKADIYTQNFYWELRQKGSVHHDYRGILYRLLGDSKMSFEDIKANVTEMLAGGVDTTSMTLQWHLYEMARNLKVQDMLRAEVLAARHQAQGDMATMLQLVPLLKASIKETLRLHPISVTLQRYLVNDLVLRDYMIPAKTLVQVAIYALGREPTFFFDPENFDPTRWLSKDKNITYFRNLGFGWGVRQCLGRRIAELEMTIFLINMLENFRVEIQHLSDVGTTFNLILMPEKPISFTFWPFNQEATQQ
Description: CYP11A1 assay based on mitochondrial fraction of V79-4 cells. The format is biochemical. The settings on record: 10 µM, 20S-hydroxycholesterol 2 µM, 4 h, qualitative, assay of low sensitivity. As for the experimental part:
Mitochondria were prepared as described previously with modifications ([Frezza et al., 2007]). Briefly, V79-4 cells (3,000,000) were seeded 4 h prior to transfection with 4 µg of expression plasmid for CYP11A1 and adrenodoxin (GeneScript Piscataway, USA, clone IDs OHu18602D and OHu55929D) using polyethylemine (PEI) in a PEI/DNA ratio of 3:1 (w/w). At 4 h post-transfection, medium was changed and cells were incubated overnight. Cells were collected in ice cold phosphate buffered saline (PBS) and centrifuged at 600 × g for 10 min at 4 °C. The pellet was resuspended in ice cold isolation buffer (10 mM Tris/MOPS, pH 7.4, 1 mM EGTA/Tris, pH 7.4, 200 mM sucrose in water) and transferred to a glass potter, followed by 35 S using a 2 cm^3 glass Teflon pestle. The homogenate was centrifuged for 10 min at 600 × g and 4 °C. The supernatant was collected and centrifuged for 10 min at 7000 × g at 4 °C. The pellet was washed and resuspended in 200 μL ice cold isolation buffer. After centrifugation, the pellet containing the mitochondrial fraction was resuspended in 30 μL reaction buffer (25 mM HEPES pH 7.4, 0.1 mM DTT, 0.1 mM EDTA, 4 mM MgCl2) and the protein content was determined by the BCA assay according to the manufacturer (Pierce BCA protein assay kit, Thermo Scientific, Rockford, USA). Bovine serum albumin provided with the kit was used as reference protein and absorbance was measured using a BioTek Cytation5 Imaging Reader (Agilent BioTek).
For the CYP11A1 activity assay, 500 µg/mL of freshly prepared mitochondrial fraction were pre-incubated on ice with reaction buffer, 1 mM NADPH and either vehicle (0.1% DMSO), 10 µM of the positive control ketoconazole ([Mast et al., 2013]) or the triazole antifungals for 10 min. The reaction was started by adding the substrate 20S-hydroxycholesterol at a final concentration of 2 µM in a reaction volume of 50 µL. After 4 h of incubation at 37 °C, the reaction was stopped by adding 50 µL methanol and shock-freezing in liquid nitrogen. Samples were stored at −80 °C until sample preparation for pregnenolone detection using an ELISA kit (Alpco, Salem, USA). Sample preparation included evaporation of samples to dryness, reconstitution in 6 µL methanol and 1:25 (v:v) dilution in water. The ELISA was performed according to the manufacturer and absorbance was measured using a BioTek Citation5 imaging reader.

In assay [2] the test system is 11β-HSD2. More on the design: method as in Beck et al., 2017, Beck et al., 2020a. The settings on record: ref Beck et al., 2017, Beck et al., 2020a; cited from earlier work.

A word on the IC50: it is the concentration that inhibits the measured activity by half. In the case of `C[C@@H](c1nc(-c2ccc(C#N)cc2)cs1)[C@](O)(Cn1cncn1)c1cc(F)ccc1F` [isavuconazole], in assay [1], the “inhibition of CYP11A1 activity” value is on record as “comparable to ketoconazole”. Besides, in assay [2], the 50% inhibitory concentration (IC50) is ~10000 nM.

With `CCC(C)n1ncn(-c2ccc(N3CCN(c4ccc(OCC5COC(Cn6cncn6)(c6ccc(Cl)cc6Cl)O5)cc4)CC3)cc2)c1=O` (stereo not drawn) [itraconazole], in assay [1], the “inhibition of CYP11A1 activity” value is on record as “very weak inhibitory activity”. Moreover, the IC50 in assay [2] was 140 nM.

Turning to `CC[C@@H]([C@H](C)O)n1ncn(-c2ccc(N3CCN(c4ccc(OC[C@@H]5CO[C@@](Cn6cncn6)(c6ccc(F)cc6F)C5)cc4)CC3)cc2)c1=O` [posaconazole, Posaconazole], the “inhibition of CYP11A1 activity” value in assay [1] is given as “very weak inhibitory activity”. In addition, the half-inhibitory concentration (IC50) in assay [2] is 460 nM.
